The source made the active and inactive calls. The rule behind the calls is not given here.
Test system: CCRIS mutagenicity, Ames/micronucleus/aberration tests
Experiment: CCRIS mutagenicity studies

With `O=c1cccc2c1ccc1[nH]c3ccc4ccccc4c3cc12` the mutagenic call (Test System: AMES SALMONELLA TYPHIMURIUM, Strain/Indicator: TA100, Metabolic Activation: GUINEA PIG, LIVER, S-9, 3-METHYLCHOLANTHRENE, Method: STANDARD PLATE) was “inactive; negative” and the mutagenic call (Test System: CHINESE HAMSTER V-79, Strain/Indicator: V-79/6-THIOGUANINE, Metabolic Activation: GUINEA PIG, LIVER, S-9, 3-METHYLCHOLANTHRENE) was “inactive; negative”.

In the case of `C=C(C=O)CCC`, the mutagenic call (Test System: AMES SALMONELLA TYPHIMURIUM, Strain/Indicator: TA100, Metabolic Activation: RAT LIVER S-9, AROCLOR 1254, Method: PREINCUBATION) was “active; positive” and the mutagenic call (Test System: AMES SALMONELLA TYPHIMURIUM, Strain/Indicator: TA100, Metabolic Activation: RAT, LIVER, S-9, AROCLOR 1254, Method: PREINCUBATION) was “active; positive”.

For `C1COC1`, the mutagenic call (Test System: AMES SALMONELLA TYPHIMURIUM, Strain/Indicator: TA97, Metabolic Activation: HAMSTER, LIVER, S-9, AROCLOR 1254 (30%), Method: PREINCUBATION) was “inactive; negative”, the mutagenic call (Test System: AMES SALMONELLA TYPHIMURIUM, Strain/Indicator: TA97, Metabolic Activation: NONE, Method: PREINCUBATION) was “inactive; negative” and the mutagenic call (Test System: AMES SALMONELLA TYPHIMURIUM, Strain/Indicator: TA97, Metabolic Activation: RAT, LIVER, S-9, AROCLOR 1254 (30%), Method: PREINCUBATION) was “inactive; negative”. For the same compound, the mutagenic call (Test System: AMES SALMONELLA TYPHIMURIUM, Strain/Indicator: TA98, Metabolic Activation: HAMSTER, LIVER, S-9, AROCLOR 1254 (30%), Method: PREINCUBATION) was “inactive; negative”, the mutagenic call (Test System: AMES SALMONELLA TYPHIMURIUM, Strain/Indicator: TA98, Metabolic Activation: NONE, Method: PREINCUBATION) was “inactive; negative” and the mutagenic call (Test System: AMES SALMONELLA TYPHIMURIUM, Strain/Indicator: TA98, Metabolic Activation: RAT, LIVER, S-9, AROCLOR 1254 (30%), Method: PREINCUBATION) was “inactive; negative”. The mutagenic call (Test System: AMES SALMONELLA TYPHIMURIUM, Strain/Indicator: TA100, Metabolic Activation: HAMSTER, LIVER, S-9, AROCLOR 1254 (30%), Method: PREINCUBATION) was “inactive; negative”, the mutagenic call (Test System: AMES SALMONELLA TYPHIMURIUM, Strain/Indicator: TA100, Metabolic Activation: NONE, Method: PREINCUBATION) was “inactive; negative” and the mutagenic call (Test System: AMES SALMONELLA TYPHIMURIUM, Strain/Indicator: TA100, Metabolic Activation: RAT, LIVER, S-9, AROCLOR 1254 (30%), Method: PREINCUBATION) was “inactive; negative”. For the same compound, the mutagenic call (Test System: AMES SALMONELLA TYPHIMURIUM, Strain/Indicator: TA1535, Metabolic Activation: HAMSTER, LIVER, S-9, AROCLOR 1254 (10 OR 30%), Method: PREINCUBATION) was “active; positive”, the mutagenic call (Test System: AMES SALMONELLA TYPHIMURIUM, Strain/Indicator: TA1535, Metabolic Activation: NONE, Method: PREINCUBATION) was “inactive; negative” and the mutagenic call (Test System: AMES SALMONELLA TYPHIMURIUM, Strain/Indicator: TA1535, Metabolic Activation: RAT, LIVER, S-9, AROCLOR 1254 (10 OR 30%), Method: PREINCUBATION) was “active; positive”. For the same compound, the mutagenic call (Test System: AMES SALMONELLA TYPHIMURIUM, Strain/Indicator: TA1537, Metabolic Activation: HAMSTER, LIVER, S-9, AROCLOR 1254 (30%), Method: PREINCUBATION) was “inactive; negative”, the mutagenic call (Test System: AMES SALMONELLA TYPHIMURIUM, Strain/Indicator: TA1537, Metabolic Activation: NONE, Method: PREINCUBATION) was “inactive; negative” and the mutagenic call (Test System: AMES SALMONELLA TYPHIMURIUM, Strain/Indicator: TA1537, Metabolic Activation: RAT, LIVER, S-9, AROCLOR 1254 (30%), Method: PREINCUBATION) was “inactive; negative”.

Reference: PubChem BioAssay AID1259407 (Chemical Carcinogenesis Research Information System (CCRIS), 2018)
